The source of these data is ChEMBL document CHEMBL1153280, “Synthesis and in vitro activity of dicationic bis-benzimidazoles as a new class of anti-MRSA and anti-VRE agents” (2009).

Format in all cases: functional
Assay [1] has as its system Staphylococcus aureus. Description: Antibacterial activity against Staphylococcus aureus ATCC 29213 by NCCLS method.
In assay [2] the test system is Staphylococcus aureus. Description: Antibacterial activity against multidrug-resistant Staphylococcus aureus BAA-39 by NCCLS method.
The subject of assay [3] is Staphylococcus aureus. Nature of the assay: Antibacterial activity against methicillin-resistant Staphylococcus aureus ATCC 33591 by NCCLS method.
In assay [4] the test system is Staphylococcus epidermidis. Nature of the assay: Antibacterial activity against Staphylococcus epidermidis ATCC 12228 by NCCLS method.
The subject of assay [5] is Staphylococcus epidermidis. Nature of the assay: Antibacterial activity against methicillin-resistant Staphylococcus epidermidis ATCC 51625 by NCCLS method.
Assay [6] deals with Streptococcus pneumoniae. Description: Antibacterial activity against Streptococcus pneumoniae ATCC 6301 by NCCLS method.
Assay [7] deals with Enterococcus faecalis. Description: Antibacterial activity against vancomycin-resistant Enterococcus faecalis ATCC 51575 by NCCLS method.
For assay [8], the system named is Enterococcus faecium. Description: Antibacterial activity against vancomycin-resistant Enterococcus faecium ATCC 700221 by NCCLS method.
The test system of assay [9] is Bacillus subtilis. Description: Antibacterial activity against Bacillus subtilis ATCC 23857 by NCCLS method.
Assay [10] relates to Bacillus cereus. Description: Antibacterial activity against Bacillus cereus ATCC 11778 by NCCLS method.
Assay [11] has as its system Bacteroides fragilis. Nature of the assay: Antibacterial activity against Bacteroides fragilis ATCC 23745 by NCCLS method.
Assay [12] deals with Clostridium perfringens. Nature of the assay: Antibacterial activity against Clostridium perfringens ATCC 10388 by NCCLS method.

Converted amounts (≈) assume the structure as drawn. A value given as a limit tells only on which side of the number the result lay.

As for `CC1(C)S[C@@H]2[C@H](NC(=O)Cc3ccccc3)C(=O)N2[C@H]1C(=O)O` [PENICILLIN G], the MIC in [1] was 1 µg/mL (≈ 2.99 µM); in assay [2], above 32 µg/mL; in [3], above 32 µg/mL; in assay [4], 32 µg/mL (≈ 95.7 µM); in assay [5] it was 32 µg/mL (≈ 95.7 µM); in [6], below 0.06 µg/mL. Besides, the MIC in assay [7] was 4 µg/mL (≈ 12 µM); in [8], above 32 µg/mL; in [9], below 0.06 µg/mL; in assay [10] it was above 4 µg/mL; in [11], 4 µg/mL (≈ 12 µM); in [12], at most 0.06 µg/mL.

As a reminder, the MIC is the lowest concentration that inhibits growth of the organism. A high value points to weaker potency.
